The experiment has as its system Plasmodium falciparum. The experiment can be described thus: GSK_TCMDC: Inhibition of Plasmodium falciparum 3D7 in whole erythrocytes, using parasite LDH activity as an index of growth. It counts as functional, organism-based. The following applies: Plasmodium falciparum, 3D7.

The molecule `CC(C)c1sc(N2CCN(C)CC2)nc1C(=O)NCCc1ccc(Cl)c(Cl)c1` registered an XC50 of 1050 nM.

Molecule `CC(C)CNC(=S)N1CCCN(c2nc3ccc(Cl)cc3s2)CC1` displayed an XC50 of 960 nM.

As for `Fc1ccccc1-c1cc(Nc2ccncc2)nc(-c2cccnc2)n1`, the XC50 worked out at 258 nM.

As to `COc1cccc(C=NNc2cc(C)nc3c(OC)cccc23)c1`, the XC50 was determined as 578 nM.

`COCCN1CCC(N(Cc2ccc(-c3ccc(OC(F)(F)F)cc3)cc2)C(=O)Cn2c(CCc3cccc(F)c3F)cc(=O)c3ccccc32)CC1`: the XC50 is 1210 nM.

For the molecule `O=C(Nc1ccccc1)N(Cc1cccc(-c2cccc(CNCc3ccc4c(c3)OCO4)c2)c1)C1CCN(Cc2ccccc2)CC1`, the XC50 came to 281 nM.

For `CCN(CCCN1CCCCC1)c1cc(C)nc(Nc2ccc(C)cc2C(F)(F)F)n1`, the XC50 is 544 nM.

`Cc1cnc(-c2ccc(NC(=O)c3coc4ccc(N5CC(C)N(C)C(C)C5)cc34)cc2)o1` (configuration not stated) returned an XC50 of 645 nM.

`CC(C)N1CCC(N(Cc2ccc(-c3ccc(Cl)cc3)cc2)C(=O)Cn2c(CCc3cccc(F)c3F)cc(=O)c3ccccc32)CC1` displayed an XC50 of 929 nM.

`Cc1c(CNCCCNc2nc3ccccc3[nH]2)sc(C(F)F)c1Br` yielded an XC50 of 293 nM.

`O=c1cc(NCCCNCc2cn(S(=O)(=O)c3ccccc3)c3ccccc23)[nH]c2ccccc12`: the XC50 was 879 nM.

On to `OC(CNCc1cccc(Oc2ccc(Cl)cc2)c1)c1cccc(C(F)(F)F)c1` (configuration not stated), for which the XC50 turned out to be 971 nM.

Consider `CN(C)CCN1CCN(Cc2ccc(-c3cccc(-c4nc5ccccc5[nH]4)c3)cc2)CC1`, for which the XC50 worked out at 199 nM.

Consider `CC(C)(C)OC(=O)NCc1ccc(Nc2nnc(-c3ccc(OCC(=O)NC[C@@H]4CC[C@H]5C[C@@H]4C5(C)C)c([N+](=O)[O-])c3)o2)cc1`, for which the XC50 came out at 911 nM.

Consider `COc1ccccc1NC(=O)Nc1ccc(-c2cccc(-c3nc4ccccc4[nH]3)c2)cc1`, for which the XC50 is 641 nM.

For `CCOc1c(Cl)cc(Cl)cc1CNCCCNc1nc2ccccc2[nH]1`, the XC50 amounted to 831 nM.

`Cc1sc(C)c(C(F)(F)F)c1CNCCCNc1cc(=O)c2ccccc2[nH]1`: the XC50 came to 1100 nM.

The molecule `Fc1ccc(Nc2ccnc3cc(-c4cccc(CN5CCCCC5)c4)ccc23)c(Cl)c1` displayed an XC50 of 31.8 nM.

Consider `O=C(/C=C/c1ccc(Cl)c(Cl)c1)NCCCCCN1CCCN(C(=O)Nc2ccc(OC(F)F)cc2)CC1`, for which the XC50 was determined as 833 nM.

With `Cc1ccc(N2C(=O)C3C(C2=O)C2(c4ccccc4)C(=O)C3(c3ccccc3)C(c3ccccc3)=C2c2ccccc2)cc1` (configuration not stated), the XC50 stood at 869 nM.

`Clc1ccc(CNc2nc(NCCc3c[nH]cn3)nc(NC3CCCCC3)n2)cc1` gave an XC50 of 209 nM.

With `COc1ccc(-c2ccc(NC(=O)c3ccc(Cl)cc3)cc2)cc1CN1CCNCC1`, the XC50 was 129 nM.

`CSc1ccccc1NC(=S)NC1CCN(CCCCCNC(=O)/C=C/c2ccc(Cl)c(Cl)c2)CC1` gave an XC50 of 778 nM.

For `Cc1cc(C(=O)CN2C(=O)NC(C)(c3cccc4ccccc34)C2=O)c(C)n1Cc1ccco1` (configuration not stated), the XC50 was 626 nM.

`O=C(/C=C/c1ccc(Cl)c(Cl)c1)NCCCCCN1CCC(NC(=S)Nc2ccc(Cl)c(Cl)c2)CC1`: the XC50 worked out at 528 nM.

`C=CCC1OC(=O)c2cc(OC)cc(OC)c21` (configuration not stated) returned an XC50 of 343 nM.

`CC[C@H](NC(=O)c1c(CN2CCC(N3CCCCC3)CC2)c(-c2ccccc2)nc2cc(O)ccc12)c1ccccc1` yielded an XC50 of 1370 nM.

`O=C(NC1CCN(c2ccnc3cc(Cl)ccc23)C1)c1ccc(F)cc1` (configuration not stated) registered an XC50 of 187 nM.

The molecule `COc1cccc(C(O)CNc2ccnc(Nc3ccc(Cl)cc3)n2)c1` (configuration not stated) gave an XC50 of 606 nM.

With `CC1CN(Cc2cccc(C#N)c2)CCN1c1ccc(NC(=O)c2cccs2)cc1` (configuration not stated), the XC50 amounted to 675 nM.

Take `CCCc1cc(OC)c(CC2c3cccc(O)c3CCN2C)cc1OC` (configuration not stated): the XC50 turned out to be 305 nM.

In turn, `CN(c1ccc2c(c1)nc(NCc1ccccc1)n2C)c1ccnc(Nc2ccc(CS(C)(=O)=O)cc2)n1` gave an XC50 of 841 nM.

`O=C(NC1CC1)c1ccc(N2CCN(Cc3ccc(Cl)cc3)CC2)nc1` had an XC50 of 1340 nM.

For the molecule `O=C(NCc1cccc(F)c1)Nc1cccc(-c2ccc(-c3nc4cc(F)ccc4[nH]3)cc2)c1`, the XC50 stood at 1050 nM.

`COc1ccc(OCC(=O)Nc2cc(-c3nc4ccccc4[nH]3)ccc2Cl)cc1` displayed an XC50 of 903 nM.

The molecule `CCSc1ccc(C)cc1CON1C(N)=NC(N)=NC1(C)C` returned an XC50 of 3.2 nM.

For `O=C(Nc1ccc(CN2CCCCC2)cc1)c1ccc(COc2ccc([N+](=O)[O-])cc2)o1`, the XC50 is 996 nM.

As to `O=C(Nc1ccc(Cn2ncc(N3CCCNCC3)c(Cl)c2=O)cc1)Nc1cccc(C(F)(F)F)c1`, the XC50 came to 640 nM.

Take `Cc1ccc(O)cc1Nc1ccnc2cc(-c3cccc(CNCCS(C)(=O)=O)c3)ccc12`: the XC50 stood at 836 nM.

Consider `COc1ccc2ncn(-c3ccc(C(N)=O)c(OCc4ccccc4C(F)(F)F)c3)c2c1`, for which the XC50 turned out to be 540 nM.

`Cc1ccc(C)c(Sc2ccc(NC(=O)CN3CCN(C(=O)c4ccco4)CC3)cc2)c1`: the XC50 was 716 nM.

For the molecule `COc1ccc2[nH]c(C)cc(=NN=Cc3ccccc3)c2c1`, the XC50 is 1030 nM.

As for `CCOc1ccc2c(=NN=Cc3cc(OC)c(OC)c(OC)c3)cc(C)[nH]c2c1`, the XC50 is 613 nM.

In turn, `O=C(Cc1cc(=O)oc2cc(O)ccc12)N1CCC(CN2CCC(c3c[nH]c4ccccc34)CC2)CC1` yielded an XC50 of 870 nM.

The molecule `COc1c(C2CCN(CCCCNC(=O)c3cccc(-c4ccc(C(F)(F)F)cc4)c3)CC2)ccc2c1CCCC2` yielded an XC50 of 777 nM.

In turn, `COc1ccc(-c2nnc(Sc3ccc(C#N)c([N+](=O)[O-])c3)n2CC(C)C)cc1` yielded an XC50 of 821 nM.

`CN(C)C(=O)CCCn1c(CNCCCNc2cc(=O)c3ccccc3[nH]2)cc2c(Cl)cc(Cl)cc21` registered an XC50 of 1190 nM.

`Cn1c(/C=C/C(=O)NC2CCC(CCN3CCc4ccc(C#N)cc4CC3)CC2)cc2ccccc21` (configuration not stated) showed an XC50 of 733 nM.

Molecule `Cc1cc(N)ncc1-c1ccc(NC(=O)Nc2cc(C(F)(F)F)ccc2F)cc1` came in with an XC50 of 698 nM.

Molecule `CC(C)c1ccc(NC(=O)c2ccc(CN3CCCN(CC4CCCCC4)CC3)cc2)cc1` displayed an XC50 of 615 nM.

`O=C(Nc1cccc(CN2CCCN(CC3CC3)CC2)c1)c1ccc(Cl)c(Cl)c1` displayed an XC50 of 1030 nM.

On to `COc1cc2nc(N3CCC(CNCc4ccc(-c5ccc(C(F)(F)F)cc5)cc4)CC3)nc(N)c2cc1OC`, for which the XC50 was found to be 86.9 nM.

`O=C(/C=C/c1ccc(Cl)c(Cl)c1)NCC1CCN(Cc2ccc(O)cc2)CC1`: the XC50 is 694 nM.

With `COc1ccc(Nc2nccc(N3CCC(NC(=O)c4cc5ccccc5s4)C3)n2)cc1` (configuration not stated), the XC50 stood at 759 nM.

`CCc1cc(CNC2CCN(CCc3c(F)cnc4ccc(OC)nc34)CC2)cc2c1OCCO2`: the XC50 stood at 264 nM.

With `COc1cc(NCCCCCNc2cc(Cl)nc3ccccc23)nc2ccccc12`, the XC50 is 783 nM.

The molecule `Cc1ccc(OC2CCN(CCCCC3(C)C(=O)Nc4ccccc43)CC2)cc1` (configuration not stated) yielded an XC50 of 743 nM.

As to `CCC1(C)CC(CCNCc2ccccc2O)(c2ccc(C)cc2)CCO1` (configuration not stated), the XC50 amounted to 38.8 nM.

Consider `CC(C)CC1c2[nH]c3ccccc3c(=O)c2CN1C(=O)OC(C)(C)C` (configuration not stated), for which the XC50 came out at 221 nM.

`Cc1cc(-c2ccc(O)c(CNC3CCCCC3)c2)cnc1N` yielded an XC50 of 203 nM.

For the molecule `O=C(NC1CCN(CCC(NC(=O)c2ccccc2)c2ccc(Cl)c(Cl)c2)CC1)c1ccc(Cl)cc1` (configuration not stated), the XC50 was 1070 nM.

With `O=C(Nc1ccc([N+](=O)[O-])cc1Cl)c1cc(Br)cc(Cc2ccccc2)c1O`, the XC50 turned out to be 1290 nM.

The values are drawn from ChEMBL document CHEMBL1157539, “Thousands of chemical starting points for antimalarial lead identification” (Nature, 2010).
